Assay results taken from PubChem BioAssay AID248 (DTP/NCI, 2004).
Where “and” joins values, the source holds several entries; their conditions need not be identical. Equal values may be shown once. Toxic doses and inconclusive results are not listed. Rule as the data show it: active = T/C of 150% or more; inactive = T/C below 125%.

System: L1210 leukemia ip in BDF1 mice, survival T/C
Experiment: NCI In Vivo Anticancer Drug Screen. Data for tumor model L1210 Leukemia (intraperitoneal) in B6D2F1 (BDF1) mice
Settings: endpoint: mean survival time, higher = longer survival
Outline: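 In this screen, tumor-bearing mice given compound are compared to those given vehicle, and their survival values are reported as a treated-to-control quotient.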

[1] = dose: 100.0 mg/kg/injection, schedule: Q01DX009 (ip), vehicle: Klucel (hydroxypropylcellulose) (HPC)
[2] = dose: 100.0 mg/kg/injection, schedule: Q04DX002 (ip), vehicle: Klucel (hydroxypropylcellulose) (HPC)
[3] = dose: 100.0 mg/kg/injection, schedule: Q04DX003 (ip), vehicle: saline
[4] = dose: 200.0 mg/kg/injection, schedule: Q04DX003 (ip), vehicle: saline
[5] = dose: 400.0 mg/kg/injection, schedule: Q04DX003 (ip), vehicle: saline
[6] = dose: 25.0 mg/kg/injection, schedule: Q01DX009 (ip), vehicle: saline with Tween-80
[7] = dose: 50.0 mg/kg/injection, schedule: Q01DX009 (ip), vehicle: saline with Tween-80
[8] = dose: 100.0 mg/kg/injection, schedule: Q01DX009 (ip), vehicle: saline with Tween-80
[9] = dose: 200.0 mg/kg/injection, schedule: Q01DX009 (ip), vehicle: saline with Tween-80
[10] = dose: 100.0 mg/kg/injection, schedule: Q01DX001 (ip), vehicle: saline
[11] = dose: 200.0 mg/kg/injection, schedule: Q01DX001 (ip), vehicle: saline
[12] = dose: 400.0 mg/kg/injection, schedule: Q01DX001 (ip), vehicle: saline
[13] = dose: 200.0 mg/kg/injection, schedule: Q04DX002 (ip), vehicle: Klucel (hydroxypropylcellulose) (HPC)
[14] = dose: 400.0 mg/kg/injection, schedule: Q04DX002 (ip), vehicle: Klucel (hydroxypropylcellulose) (HPC)

Measured: T/C

C=C1CC(c2ccc(S(=O)(=O)N(CC)CC)cc2)OC1=O (centres undefined)
inactive: dose: 25.0 mg/kg/injection, schedule: Q01DX005 (ip), vehicle: Klucel (hydroxypropylcellulose) (HPC) 89 % of control | dose: 25.0 mg/kg/injection, schedule: Q01DX009 (ip), vehicle: Klucel (hydroxypropylcellulose) (HPC) 98 % of control | dose: 25.0 mg/kg/injection, schedule: Q04DX002 (ip), vehicle: Klucel (hydroxypropylcellulose) (HPC) 96 % of control | dose: 50.0 mg/kg/injection, schedule: Q01DX005 (ip), vehicle: Klucel (hydroxypropylcellulose) (HPC) 92 % of control | dose: 50.0 mg/kg/injection, schedule: Q01DX009 (ip), vehicle: Klucel (hydroxypropylcellulose) (HPC) 94 % of control | dose: 50.0 mg/kg/injection, schedule: Q04DX002 (ip), vehicle: Klucel (hydroxypropylcellulose) (HPC) 96 % of control | dose: 100.0 mg/kg/injection, schedule: Q01DX005 (ip), vehicle: Klucel (hydroxypropylcellulose) (HPC) 96 % of control | [1] 98 % of control | [2] 96 % of control

COc1cc2c(c3oc(=O)ccc13)C(=O)CC(C)(C)O2
inactive: [1] 95 % of control | [3] 96 % of control | dose: 200.0 mg/kg/injection, schedule: Q01DX009 (ip), vehicle: Klucel (hydroxypropylcellulose) (HPC) 91 % of control | [4] 102 % of control | dose: 400.0 mg/kg/injection, schedule: Q01DX009 (ip), vehicle: Klucel (hydroxypropylcellulose) (HPC) 95 % of control | [5] 98 % of control

OCCNCc1ccc(O)cc1
inactive: dose: 100.0 mg/kg/injection, schedule: Q01DX009 (ip), vehicle: water 100 % of control | dose: 100.0 mg/kg/injection, schedule: Q04DX003 (ip), vehicle: water 103 % of control | dose: 200.0 mg/kg/injection, schedule: Q01DX009 (ip), vehicle: water 105 % of control | dose: 200.0 mg/kg/injection, schedule: Q04DX003 (ip), vehicle: water 103 % of control | dose: 400.0 mg/kg/injection, schedule: Q01DX009 (ip), vehicle: water 102 % of control | dose: 400.0 mg/kg/injection, schedule: Q04DX003 (ip), vehicle: water 103 % of control

CC1(C)N=C(N)N=C(N)N1c1cccc(CCCCc2cccc(S(=O)(=O)F)c2)c1
inactive: dose: 6.25 mg/kg/injection, schedule: Q01DX009 (ip), vehicle: saline sonified 100 % of control | dose: 6.25 mg/kg/injection, schedule: Q04DX003 (ip), vehicle: saline sonified 93 % of control | dose: 12.5 mg/kg/injection, schedule: Q01DX009 (ip), vehicle: saline sonified 88 % of control | dose: 12.5 mg/kg/injection, schedule: Q04DX003 (ip), vehicle: saline sonified 98 % of control | dose: 25.0 mg/kg/injection, schedule: Q01DX009 (ip), vehicle: saline sonified 92 % of control | dose: 25.0 mg/kg/injection, schedule: Q04DX003 (ip), vehicle: saline sonified 93 % of control

CC(=O)CSc1nc2nccnc2[nH]1
inactive: [6] 110 % of control | [7] 110 % of control | [8] 104 % of control | [9] 104 % of control | dose: 400.0 mg/kg/injection, schedule: Q01DX009 (ip), vehicle: saline with Tween-80 107 % of control

C1CCC2CC(NC3=NCCO3)CCC2C1 (centres undefined)
inactive: dose: 0.19 mg/kg/injection, schedule: Q01DX009 (ip), vehicle: Klucel (hydroxypropylcellulose) (HPC) 96 % of control | dose: 0.39 mg/kg/injection, schedule: Q01DX009 (ip), vehicle: Klucel (hydroxypropylcellulose) (HPC) 98 % of control | dose: 0.78 mg/kg/injection, schedule: Q01DX009 (ip), vehicle: Klucel (hydroxypropylcellulose) (HPC) 98 % of control and 113 % of control

CCCCCCCC/C=C/CCCCCCCCNC(=O)NCCCl
inactive: [8] 95 % of control | dose: 100.0 mg/kg/injection, schedule: Q04DX003 (ip), vehicle: saline with Tween-80 87 % of control | [9] 92 % of control | dose: 200.0 mg/kg/injection, schedule: Q04DX003 (ip), vehicle: saline with Tween-80 87 % of control | dose: 400.0 mg/kg/injection, schedule: Q04DX003 (ip), vehicle: saline with Tween-80 94 % of control

Cc1cc(O)c(N=Nc2ccc(C(=O)O)cc2)cc1C
inactive: dose: 25.0 mg/kg/injection, schedule: Q04DX003 (ip), vehicle: carboxymethylcellulose (CMC) 108 % of control | dose: 50.0 mg/kg/injection, schedule: Q04DX003 (ip), vehicle: carboxymethylcellulose (CMC) 103 % of control | dose: 100.0 mg/kg/injection, schedule: Q01DX001 (ip), vehicle: other 102 % of control | dose: 100.0 mg/kg/injection, schedule: Q04DX003 (ip), vehicle: carboxymethylcellulose (CMC) 101 % of control | dose: 200.0 mg/kg/injection, schedule: Q01DX001 (ip), vehicle: other 96 % of control | dose: 200.0 mg/kg/injection, schedule: Q04DX003 (ip), vehicle: carboxymethylcellulose (CMC) 101 % of control | dose: 400.0 mg/kg/injection, schedule: Q01DX001 (ip), vehicle: other 93 % of control | dose: 400.0 mg/kg/injection, schedule: Q04DX003 (ip), vehicle: carboxymethylcellulose (CMC) 95 % of control

CCCCCCCCCc1cc(C)cc(Cc2cc(C)cc(CCCCCCCCC)c2O)c1O
inactive: [10] 98 % of control | [11] 98 % of control | [12] 101 % of control

c1cc2ccsc2cn1
inactive: dose: 12.5 mg/kg/injection, schedule: Q01DX009 (ip), vehicle: saline with Tween-80 104 % of control | dose: 12.5 mg/kg/injection, schedule: Q04DX003 (ip), vehicle: saline with Tween-80 110 % of control | [6] 103 % of control | dose: 25.0 mg/kg/injection, schedule: Q04DX003 (ip), vehicle: saline with Tween-80 104 % of control | [7] 102 % of control | dose: 50.0 mg/kg/injection, schedule: Q04DX003 (ip), vehicle: saline with Tween-80 103 % of control

O=C(OC1CCCC1c1ccccc1)c1cccc([N+](=O)[O-])c1 (centres undefined)
inactive: [7] 90 % of control | [8] 90 % of control | [9] 87 % of control

O=C(CBr)c1ccc(S(=O)(=O)c2ccccc2)cc1
inactive: dose: 5.0 mg/kg/injection, schedule: Q01DX001 (ip), vehicle: carboxymethylcellulose (CMC) 93 % of control | dose: 10.0 mg/kg/injection, schedule: Q01DX001 (ip), vehicle: carboxymethylcellulose (CMC) 93 % of control | dose: 20.0 mg/kg/injection, schedule: Q01DX001 (ip), vehicle: carboxymethylcellulose (CMC) 95 % of control

Cc1c2ccccc2c(C)c2c1cc(CO)c1ccccc12
inactive: [2] 97 % of control | [13] 104 % of control | [14] 89 % of control

COC(=O)C[N+]12CN3CN(CN(C3)C1)C2
inactive: dose: 50.0 mg/kg/injection, schedule: Q01DX001 (ip), vehicle: saline 98 % of control | [10] 100 % of control | [3] 107 % of control | [11] 96 % of control | [4] 107 % of control | [12] 107 % of control | [5] 108 % of control

O=[N+]([O-])c1ccc2n[nH]c(Cl)c2c1
inactive: [10] 95 % of control | [11] 95 % of control | [12] 94 % of control

COc1ccc(OC)c(C(=S)N2CCOCC2)c1
inactive: dose: 100.0 mg/kg/injection, schedule: Q01DX001 (ip), vehicle: Klucel (hydroxypropylcellulose) (HPC) 94 % of control | dose: 100.0 mg/kg/injection, schedule: Q04DX003 (ip), vehicle: Klucel (hydroxypropylcellulose) (HPC) 96 % of control | dose: 200.0 mg/kg/injection, schedule: Q01DX001 (ip), vehicle: Klucel (hydroxypropylcellulose) (HPC) 102 % of control | dose: 200.0 mg/kg/injection, schedule: Q04DX003 (ip), vehicle: Klucel (hydroxypropylcellulose) (HPC) 96 % of control | dose: 400.0 mg/kg/injection, schedule: Q01DX001 (ip), vehicle: Klucel (hydroxypropylcellulose) (HPC) 100 % of control | dose: 400.0 mg/kg/injection, schedule: Q04DX003 (ip), vehicle: Klucel (hydroxypropylcellulose) (HPC) 96 % of control

CCCCCOC(=O)Nc1ccc(OCC)cc1
inactive: [2] 105 % of control | [13] 101 % of control | [14] 105 % of control

Oc1c(Cl)c(Cl)cc(Cl)c1Cc1c(Cl)cc(Cl)c(Cl)c1[O][Pb]([c]1ccccc1)([c]1ccccc1)[c]1ccccc1
inactive: dose: 6.25 mg/kg/injection, schedule: Q01DX009 (ip), vehicle: saline 101 % of control | dose: 12.5 mg/kg/injection, schedule: Q01DX009 (ip), vehicle: saline 95 % of control | dose: 25.0 mg/kg/injection, schedule: Q04DX002 (ip), vehicle: saline 86 % of control | dose: 100.0 mg/kg/injection, schedule: Q04DX002 (ip), vehicle: saline 97 % of control
